Data as given in the supplement of paper PMC8617591.

How the values were obtained:
[1] = tested on: Mycobacterium tuberculosis Erdman (autoluminescent); test: total FIC50 (Loewe) at 50% inhibition, three-drug combination (log2); higher = more antagonistic
Protocol: (§1)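 DiaMOND equipotent three-drug combination dose responses (10 doses, 1.5- or 2-fold spacing, centred on IC90) against autoluminescent M. tuberculosis Erdman in 8 in vitro models. Read-out is OD600, or luminescence for the intracellular and dormancy models, normalised to untreated wells. Hill-fit Einf, AUC25 and GRinf are potency metrics; FIC50 and FIC90 are total Loewe fractional inhibitory concentrations as log2 (negative = synergy).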

[2] = tested on: Mycobacterium tuberculosis Erdman (autoluminescent); test: total FIC90 (Loewe) at 90% inhibition, three-drug combination (log2); higher = more antagonistic
Protocol: as §1

[3] = tested on: Mycobacterium tuberculosis Erdman (autoluminescent); test: Einf, fitted maximum growth inhibition of three-drug combination (fraction); higher = stronger maximal inhibition
Protocol: as §1

[4] = tested on: Mycobacterium tuberculosis Erdman (autoluminescent); test: AUC25, normalised area under dose response up to IC25 (three-drug combination) (fraction (0-1)); higher = more potent at low dose
Protocol: as §1

[5] = tested on: Mycobacterium tuberculosis Erdman (autoluminescent); test: GRinf, maximum normalised growth rate inhibition (three-drug combination) (unitless (-1 to 1)); higher = less effect (negative = killing)
Protocol: as §1

[6] = in vitro model: acidic pH 5.7, time point: constant (~7 days, model-specific)
[7] = in vitro model: acidic pH 5.7, time point: terminal (~4-5 doublings, model-specific)
[8] = in vitro model: butyrate, time point: constant (~7 days, model-specific)
[9] = in vitro model: butyrate, time point: terminal (~4-5 doublings, model-specific)
[10] = in vitro model: cholesterol 0.05 mM, time point: terminal (~4-5 doublings, model-specific)
[11] = in vitro model: cholesterol-high 0.2 mM, time point: constant (~7 days, model-specific)
[12] = in vitro model: cholesterol-high 0.2 mM, time point: terminal (~4-5 doublings, model-specific)
[13] = in vitro model: dormancy (butyrate + nitrate, low O2), time point: constant (~7 days, model-specific)
[14] = in vitro model: dormancy (butyrate + nitrate, low O2), time point: terminal (~4-5 doublings, model-specific)
[15] = in vitro model: standard 7H9 glycerol, time point: constant = terminal
[16] = in vitro model: valerate, time point: constant (~7 days, model-specific)
[17] = in vitro model: valerate, time point: terminal (~4-5 doublings, model-specific)
[18] = in vitro model: intracellular J774, time point: constant = terminal
[19] = in vitro model: cholesterol 0.05 mM, time point: constant (~7 days, model-specific)

CC[C@@H](CO)NCCN[C@@H](CC)CO [ethambutol] + O=[N+]([O-])c1cn2c(n1)OC[C@@H](OCc1ccc(OC(F)(F)F)cc1)C2 [pretomanid] + NC(=O)c1cnccn1 [pyrazinamide]
total FIC50 [1, 6]: -0.536
total FIC50 [1, 7]: 0.211
total FIC50 [1, 8]: 0.0336
total FIC50 [1, 9]: 0.0804
total FIC50 [1, 10]: 0.522
total FIC50 [1, 11]: 0.648
total FIC50 [1, 12]: 0.65
total FIC50 [1, 13]: -0.415
total FIC50 [1, 14]: 0.312
total FIC50 [1, 15]: 0.461
total FIC50 [1, 16]: -0.111
total FIC50 [1, 17]: 0.0754
total FIC90 [2, 7]: -1.13
total FIC90 [2, 9]: 0.185
total FIC90 [2, 12]: 1.05
total FIC90 [2, 14]: 1.35
total FIC90 [2, 18]: -0.753
total FIC90 [2, 17]: -0.361
Einf [3, 6]: 0.735
Einf [3, 7]: 0.962
Einf [3, 8]: 0.898
Einf [3, 9]: 0.949
Einf [3, 19]: 0.709
Einf [3, 10]: 0.723
Einf [3, 11]: 0.876
Einf [3, 12]: 0.992
Einf [3, 13]: 0.844
Einf [3, 14]: 0.967
Einf [3, 18]: 0.983
Einf [3, 15]: 0.913
Einf [3, 16]: 0.882
Einf [3, 17]: 0.919
AUC25 [4, 6]: 0.122
AUC25 [4, 7]: 0.091
AUC25 [4, 8]: 0.0885
AUC25 [4, 9]: 0.0789
AUC25 [4, 19]: 0.13
AUC25 [4, 10]: 0.129
AUC25 [4, 11]: 0.0837
AUC25 [4, 12]: 0.0682
AUC25 [4, 13]: 0.127
AUC25 [4, 14]: 0.11
AUC25 [4, 15]: 0.0755
AUC25 [4, 16]: 0.0698
AUC25 [4, 17]: 0.0514
GRinf [5, 6]: -0.0977
GRinf [5, 7]: -0.384
GRinf [5, 8]: 0.0512
GRinf [5, 9]: 0.0472
GRinf [5, 19]: -0.334
GRinf [5, 10]: -0.277
GRinf [5, 11]: -0.121
GRinf [5, 12]: -0.572
GRinf [5, 13]: 0.4
GRinf [5, 14]: -0.312
GRinf [5, 18]: -0.544
GRinf [5, 15]: 0.125
GRinf [5, 16]: 0.0142
GRinf [5, 17]: 0.0593

NNC(=O)c1ccncc1 [isoniazid] + CC(=O)NC[C@H]1CN(c2ccc(N3CCOCC3)c(F)c2)C(=O)O1 [linezolid] + CO[C@H]1/C=C/O[C@@]2(C)Oc3c(C)c(O)c4c(O)c(c(/C=N/N5CCN(C6CCCC6)CC5)c(O)c4c3C2=O)NC(=O)/C(C)=C\C=C\[C@H](C)[C@H](O)[C@@H](C)[C@@H](O)[C@@H](C)[C@H](OC(C)=O)[C@@H]1C [rifapentine]
total FIC50 [1, 6]: 0.653
total FIC50 [1, 7]: 0.526
total FIC50 [1, 8]: 0.461
total FIC50 [1, 9]: 0.377
total FIC50 [1, 19]: 0.774
total FIC50 [1, 10]: 0.542
total FIC50 [1, 11]: 0.52
total FIC50 [1, 12]: 0.739
total FIC50 [1, 13]: 1.15
total FIC50 [1, 14]: 0.72
total FIC50 [1, 15]: 0.53
total FIC50 [1, 16]: 0.038
total FIC50 [1, 17]: 0.299
total FIC90 [2, 7]: 0.636
total FIC90 [2, 8]: 1.07
total FIC90 [2, 9]: 0.0682
total FIC90 [2, 10]: 0.792
total FIC90 [2, 12]: 0.834
total FIC90 [2, 13]: 0.705
total FIC90 [2, 14]: 0.385
total FIC90 [2, 18]: 0.00443
total FIC90 [2, 15]: 1.15
total FIC90 [2, 17]: 0.267
Einf [3, 6]: 0.853
Einf [3, 7]: 0.977
Einf [3, 8]: 0.894
Einf [3, 9]: 0.94
Einf [3, 19]: 0.735
Einf [3, 10]: 0.921
Einf [3, 11]: 0.833
Einf [3, 12]: 1
Einf [3, 13]: 0.879
Einf [3, 14]: 0.984
Einf [3, 18]: 0.946
Einf [3, 15]: 0.902
Einf [3, 16]: 0.839
Einf [3, 17]: 0.931
AUC25 [4, 6]: 0.0908
AUC25 [4, 7]: 0.0757
AUC25 [4, 8]: 0.0823
AUC25 [4, 9]: 0.0501
AUC25 [4, 19]: 0.153
AUC25 [4, 10]: 0.125
AUC25 [4, 11]: 0.0853
AUC25 [4, 12]: 0.093
AUC25 [4, 13]: 0.0503
AUC25 [4, 14]: 0.0276
AUC25 [4, 15]: 0.0681
AUC25 [4, 16]: 0.0749
AUC25 [4, 17]: 0.0444
GRinf [5, 6]: -0.0954
GRinf [5, 7]: -0.138
GRinf [5, 8]: 0.1
GRinf [5, 9]: 0.0909
GRinf [5, 19]: -0.233
GRinf [5, 10]: -0.273
GRinf [5, 11]: -0.0945
GRinf [5, 12]: -0.883
GRinf [5, 13]: 0.222
GRinf [5, 14]: -0.167
GRinf [5, 18]: -0.138
GRinf [5, 15]: 0.155
GRinf [5, 16]: 0.0814
GRinf [5, 17]: 0.0271

NNC(=O)c1ccncc1 [isoniazid] + CC(=O)NC[C@H]1CN(c2ccc(N3CCOCC3)c(F)c2)C(=O)O1 [linezolid] + CO[C@H]1/C=C/O[C@@]2(C)Oc3c(C)c(O)c4c(O)c(c(/C=N/N5CCN(C)CC5)c(O)c4c3C2=O)NC(=O)/C(C)=C\C=C\[C@H](C)[C@H](O)[C@@H](C)[C@@H](O)[C@@H](C)[C@H](OC(C)=O)[C@@H]1C [rifampicin]
total FIC50 [1, 6]: 0.571
total FIC50 [1, 7]: 0.505
total FIC50 [1, 8]: 0.353
total FIC50 [1, 9]: 0.184
total FIC50 [1, 19]: 0.356
total FIC50 [1, 10]: 4.8
total FIC50 [1, 11]: 0.569
total FIC50 [1, 12]: 0.831
total FIC50 [1, 13]: 0.857
total FIC50 [1, 14]: 0.231
total FIC50 [1, 15]: 0.299
total FIC50 [1, 16]: 0.491
total FIC50 [1, 17]: 0.502
total FIC90 [2, 7]: 0.335
total FIC90 [2, 8]: 0.315
total FIC90 [2, 9]: 0.0301
total FIC90 [2, 10]: -0.269
total FIC90 [2, 12]: 0.809
total FIC90 [2, 13]: 0.12
total FIC90 [2, 14]: 0.0283
total FIC90 [2, 18]: -0.141
total FIC90 [2, 15]: -0.589
total FIC90 [2, 17]: 0.221
Einf [3, 6]: 0.841
Einf [3, 7]: 0.972
Einf [3, 8]: 0.915
Einf [3, 9]: 0.958
Einf [3, 19]: 0.691
Einf [3, 10]: 0.916
Einf [3, 11]: 0.956
Einf [3, 12]: 0.997
Einf [3, 13]: 0.891
Einf [3, 14]: 0.978
Einf [3, 18]: 0.947
Einf [3, 15]: 0.899
Einf [3, 16]: 0.862
Einf [3, 17]: 0.934
AUC25 [4, 6]: 0.073
AUC25 [4, 7]: 0.0682
AUC25 [4, 8]: 0.0943
AUC25 [4, 9]: 0.0727
AUC25 [4, 19]: 0.139
AUC25 [4, 10]: 0.135
AUC25 [4, 11]: 0.11
AUC25 [4, 12]: 0.0902
AUC25 [4, 13]: 0.0701
AUC25 [4, 14]: 0.036
AUC25 [4, 15]: 0.0756
AUC25 [4, 16]: 0.0594
AUC25 [4, 17]: 0.035
GRinf [5, 6]: -0.0845
GRinf [5, 7]: -0.116
GRinf [5, 8]: 0.0298
GRinf [5, 9]: 0.0122
GRinf [5, 19]: -0.14
GRinf [5, 10]: -0.324
GRinf [5, 11]: -0.355
GRinf [5, 12]: -0.919
GRinf [5, 13]: 0.192
GRinf [5, 14]: -0.111
GRinf [5, 18]: -0.188
GRinf [5, 15]: 0.148
GRinf [5, 16]: 0.0129
GRinf [5, 17]: 0.0126
